# Measured values reported in patent US20240376097A1, “BCL-2 Inhibitor” (BeiGene Ltd., priority 2020, published 2024).
# Experiments:
# [1] = Metabolic Stability Study, liver microsome incubation (mouse); type: in vitro ADME; details: mouse liver microsomes 0.5 mg/mL, 1 μM compound, NADPH; for half-life at 1 μM: NA^# = very stable, beyond the detection limits, read-out: T1/2 (min) mouse; for microsomal CLint at 1 μM: read-out: CLint (μL × min^−1 × mg^−1) mouse
# Procedure: (§1) Biological Example: Metabolic Stability Study
# (§2) The metabolic stability of some compounds was evaluated by using the liver microsome incubation system in vitro. Briefly, the test compounds at 1 μM, were incubated with 0.5 mg/mL liver microsomes from different species (human, dog, rat and mouse) with an NADPH regenerating system at 37° C. Samples were quenched at three time points (0, 30, 60 min) with organic solvent containing internal standards, and the supernatant was analyzed for parent loss via LC-MS/MS. Midazolam was used as the positive control to validate the incubation system.
# (§3) where Cprotein is the microsomal protein concentration in the incubation system.
# (§4) The value of CLint and T1/2 of Example F132b in WO2019210818 and representative compounds of the disclosure were determined, and the results are shown in Table 5.
# [2] = Metabolic Stability Study, liver microsome incubation (human); type: in vitro ADME; details: human liver microsomes 0.5 mg/mL, 1 μM compound, NADPH; for half-life at 1 μM: NA^# = very stable, beyond the detection limits, read-out: T1/2 (min) Human; for microsomal CLint at 1 μM: read-out: CLint (μL × min^−1 × mg^−1) Human
# Procedure: as §1, §2, §3, §4
# [3] = system: BCL-2 G101V knock-in cell line H96 (derive from RS4;11); test: Bcl 2-G101V Knock-In RS4;11 Cell Proliferation Assay; type: cell-based; details: Homo sapiens, RS4-11, 48 h, RS4;11 Bcl-2 G101V knock-in clone H96, 48 hrs, CellTiter-GLO, read-out: Cellular proliferation assay (IC50, nM) RS4
# Summary of the method: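 CellTiter-Glo luminescence after 48 h, 37 °C compound treatment (10 concentrations, maximum 1 μM or 10 μM) gave mean IC50 values. Cells were 50,000 per well of H96, a BCL2-G101V knock-in single clone derived from RS4;11 by Cas9 editing.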
# [4] = target: recombinant human Bcl-2 D103Y protein (Homo sapiens (Human), UniProt P10415, D103Y); test: Bcl-2-D103Y Biochemical Assay (TR-FRET); type: binding; details: for IC50: TR-FRET, FITC labeled Bak peptide; for Ratio of Bcl-2 D103Y/Bcl-2 WT: ratio of IC50
# Chain of recombinant human Bcl-2 D103Y protein (P10415 whole entry D103Y): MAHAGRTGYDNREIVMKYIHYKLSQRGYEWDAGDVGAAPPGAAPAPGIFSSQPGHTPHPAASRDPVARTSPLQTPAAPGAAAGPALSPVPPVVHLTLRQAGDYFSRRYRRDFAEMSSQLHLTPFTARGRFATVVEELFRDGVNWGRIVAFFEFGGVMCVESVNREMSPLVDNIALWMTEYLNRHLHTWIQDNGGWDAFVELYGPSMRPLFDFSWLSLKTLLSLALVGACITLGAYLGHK
# Summary of the method: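 Compounds titrated against the Bcl-2 D103Y–ligand interaction; inhibition derived from the TR-FRET emission ratio 490 nm/520 nm after 337 nm excitation. Four-parameter logistic fitting gave IC50.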
# [5] = system: RS4;11 (BCL-2 dependent acute lymphoblastic leukemia cell line); test: RS4;11 Cell Proliferation Assay; type: cell-based; details: Homo sapiens, RS4;11 cells, read-out: Cellular proliferation assay (IC50, nM) RS4
# Summary of the method: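 Viability measured via CellTiter-Glo luminescence after a 48 h, 37 °C exposure to compounds (10 points, highest 1 μM). Seeding was 50,000 RS4;11 cells per well in 10% FBS RPMI-1640; IC50 given as mean.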
Compound,half-life at 1 μM [1],microsomal CLint at 1 μM [1],half-life at 1 μM [2],microsomal CLint at 1 μM [2],IC50 [3],IC50 [4],Ratio of Bcl-2 D103Y/Bcl-2 WT [4],IC50 [5],"ratio of Bcl-2 D103Y/Bcl-2 wt, compared with F91b in WO2019210828 ([4]; comparison in words)"
"COc1ccc(CN2CCN(C3CC4(CCN(c5ccc(C(=O)NS(=O)(=O)c6ccc(NCC7(F)CCOCC7)c([N+](=O)[O-])c6)c(Oc6cnc7[nH]ccc7c6)c5)CC4)C3)[C@H](c3ccccc3C(C)C)C2)cc1 (single isomer, unassigned) [Example 32, (R or S)-2-((1H-pyrrolo[2,3-b]pyridin-5-yl)oxy)-N-((4-(((4-fluorotetrahydro-2H-pyran-4-yl)methyl)amino)-3-nitrophenyl)sulfonyl)-4-(2-(2-(2-isopropylphenyl)-4-(4-methoxybenzyl)piperazin-1-yl)-7-azaspiro[3.5]nonan-7-yl)benzamide]",202 min,6.8 µL/min/mg,533 min,2.6 µL/min/mg,0.96 nM,0.11 nM,1.1,0.18 nM,
"CC(C)c1ccccc1[C@@H]1CN(Cc2ccc(F)c(F)c2)CCN1C1CC2(CCN(c3ccc(C(=O)NS(=O)(=O)c4ccc(NC[C@H]5CC[C@](C)(O)CC5)c([N+](=O)[O-])c4)c(Oc4cnc5[nH]ccc5c4)c3)CC2)C1 (single isomer, unassigned) [Example 52a, 2-((1H-pyrrolo[2,3-b]pyridin-5-yl)oxy)-4-(2-((R or S)-4-(3,4-difluorobenzyl)-2-(2-isopropylphenyl)piperazin-1-yl)-7-azaspiro[3.5]nonan-7-yl)-N-((4-((((1r,4r)-4-hydroxy-4-methylcyclohexyl)methyl)amino)-3-nitrophenyl)sulfonyl)benzamide]",,,,,1.67 nM,0.37 nM,2.4,0.25 nM,
"COc1ccc(CN2CCN(C3CC4(CCN(c5ccc(C(=O)NS(=O)(=O)c6ccc(NC[C@H]7CC[C@](C)(O)CC7)c([N+](=O)[O-])c6)c(Oc6cnc7[nH]ccc7c6)c5)CC4)C3)[C@H](c3ccccc3C(C)C)C2)cc1 [Example 19a, 2-((1H-pyrrolo[2,3-b]pyridin-5-yl)oxy)-N-((4-((((1r,4r)-4-hydroxy-4-methylcyclohexyl)methyl)amino)-3-nitrophenyl)sulfonyl)-4-(2-((R)-2-(2-isopropylphenyl)-4-(4-methoxybenzyl)piperazin-1-yl)-7-azaspiro[3.5]nonan-7-yl)benzamide]",346 min,4 µL/min/mg,,< 1 µL/min/mg,0.57 nM,0.15 nM,2.6,0.15 nM,significantly lower
"CC(C)c1ccccc1C1CN(Cc2ccc(F)cc2)CCN1C1CC2(CCN(c3ccc(C(=O)NS(=O)(=O)c4ccc(NC[C@H]5CC[C@](C)(O)CC5)c([N+](=O)[O-])c4)c(Oc4cnc5[nH]ccc5c4)c3)CC2)C1 (stereo partly shown) [Example 28, 2-((1H-pyrrolo[2,3-b]pyridin-5-yl)oxy)-4-(2-(4-(4-fluorobenzyl)-2-(2-isopropylphenyl)piperazin-1-yl)-7-azaspiro[3.5]nonan-7-yl)-N-((4-((((1r,4r)-4-hydroxy-4-methylcyclohexyl)methyl)amino)-3-nitrophenyl)sulfonyl)benzamide]",200 min,6.9 µL/min/mg,135 min,10.3 µL/min/mg,2.69 nM,0.34 nM,1.5,0.39 nM,
"CC(C)c1ccccc1C1CN(Cc2ccc(Cl)cc2)CCN1C1CC2(CCN(c3ccc(C(=O)NS(=O)(=O)c4ccc(NC[C@H]5CC[C@](C)(O)CC5)c([N+](=O)[O-])c4)c(Oc4cnc5[nH]ccc5c4)c3)CC2)C1 (stereo partly shown) [Example 29, 2-((1H-pyrrolo[2,3-b]pyridin-5-yl)oxy)-4-(2-(4-(4-chlorobenzyl)-2-(2-isopropylphenyl)piperazin-1-yl)-7-azaspiro[3.5]nonan-7-yl)-N-((4-((((1r,4r)-4-hydroxy-4-methylcyclohexyl)methyl)amino)-3-nitrophenyl)sulfonyl)benzamide]",2360 min,0.6 µL/min/mg,245 min,5.6 µL/min/mg,2.95 nM,0.57 nM,1.9,0.43 nM,
"CC(C)c1ccccc1C1CN(Cc2ccc(C(F)(F)F)cc2)CCN1C1CC2(CCN(c3ccc(C(=O)NS(=O)(=O)c4ccc(NC[C@H]5CC[C@](C)(O)CC5)c([N+](=O)[O-])c4)c(Oc4cnc5[nH]ccc5c4)c3)CC2)C1 (stereo partly shown) [Example 41, 2-((1H-pyrrolo[2,3-b]pyridin-5-yl)oxy)-N-((4-((((1r,4r)-4-hydroxy-4-methylcyclohexyl)methyl)amino)-3-nitrophenyl)sulfonyl)-4-(2-(2-(2-isopropylphenyl)-4-(4-(trifluoromethyl)benzyl)piperazin-1-yl)-7-azaspiro[3.5]nonan-7-yl) benzamide]",683 min,2 µL/min/mg,997 min,1.4 µL/min/mg,7.2 nM,3.1 nM,3.7,0.74 nM,
"COc1ccc(CN2CCN(C3CC4(CCN(c5ccc(C(=O)NS(=O)(=O)c6ccc(NC[C@H]7CC[C@](C)(O)CC7)c([N+](=O)[O-])c6)c(Oc6cnc7[nH]ccc7c6)c5)CC4)C3)[C@H](c3ccccc3C(C)C)C2)cc1OC [Example 81a, 2-((1H-pyrrolo[2,3-b]pyridin-5-yl)oxy)-4-(2-((R)-4-(3,4-dimethoxybenzyl)-2-(2-isopropylphenyl)piperazin-1-yl)-7-azaspiro[3.5]nonan-7-yl)-N-((4-((((1r,4r)-4-hydroxy-4-methylcyclohexyl)methyl)amino)-3-nitrophenyl)sulfonyl)benzamide]",219 min,6.32 µL/min/mg,,< 1 µL/min/mg,0.48 nM,,,0.146 nM,
"COc1cc(CN2CCN(C3CC4(C3)CN(c3ccc(C(=O)NS(=O)(=O)c5ccc(NC[C@H]6CC[C@](C)(O)CC6)c([N+](=O)[O-])c5)c(Oc5cnc6[nH]cc(F)c6c5)c3)C4)[C@H](c3ccccc3C(C)C)C2)cc(F)c1OC [Example 230, 2-((3-fluoro-1H-pyrrolo[2,3-b]pyridin-5-yl)oxy)-4-(6-((R)-4-(3-fluoro-4,5-dimethoxybenzyl)-2-(2-isopropylphenyl)piperazin-1-yl)-2-azaspiro[3.3]heptan-2-yl)-N-((4-((((1r,4r)-4-hydroxy-4-methylcyclohexyl)methyl)amino)-3-nitrophenyl)sulfonyl)benzamide]",183 min,7.6 µL/min/mg,373 min,3.7 µL/min/mg,0.28 nM,,,0.1 nM,
COc1cc(CN2CCN(C3CC4(CCN(c5ccc(C(=O)NS(=O)(=O)c6ccc(NC[C@H]7CC[C@](C)(O)CC7)c([N+](=O)[O-])c6)c(Oc6cnc7[nH]ccc7c6)c5)CC4)C3)[C@H](c3ccccc3C(C)C)C2)ccc1C1CC1 [Example 257],254 min,5.5 µL/min/mg,372 min,3.7 µL/min/mg,0.53 nM,,,0.15 nM,
